Test results published in the NIST ThermoML archive (doi:10.1021/je501141e).
Values joined by “and” are separate entries in the source; they are usually repeats but may differ in a detail not shown here. Equal values may be shown once. Numbers after ± are expanded uncertainties.

Assays:
[1] = 101.33 kPa, Liquid; for viscosity: Concentric cylinders viscometry; for speed of sound: Sing-around technique in a fixed-path interferometer; for mass density: Vibrating tube method
[2] = xn = mol fraction of the nth substance listed; conditions: 100 kPa, Liquid, Concentric cylinders viscometry, x2 = 0

| Structure (SMILES) | viscosity ([1]; 293.15 K) | speed of sound ([1]; 293.15 K) | mass density ([1]; 293.15 K) | viscosity ([1]; 303.15 K) | speed of sound ([1]; 303.15 K) | mass density ([1]; 303.15 K) | viscosity ([1]; 313.15 K) | speed of sound ([1]; 313.15 K) | mass density ([1]; 313.15 K) | viscosity ([1]; 323.15 K) | speed of sound ([1]; 323.15 K) | mass density ([1]; 323.15 K) | viscosity ([1]; 333.15 K) | speed of sound ([1]; 333.15 K) | mass density ([1]; 333.15 K) | viscosity ([1]; 343.15 K) | speed of sound ([1]; 343.15 K) | mass density ([1]; 343.15 K) | viscosity ([1]; 353.15 K) | mass density ([1]; 353.15 K) | also measured |
| --- | --- | --- | --- | --- | --- | --- | --- | --- | --- | --- | --- | --- | --- | --- | --- | --- | --- | --- | --- | --- | --- |
| CC(CC(C)(C)C)CC(C)(C)CC(C)(C)C (configuration not stated) [2,2,4,4,6,8,8-heptamethylnonane] | 3.71 ± 0.03 mPa·s | 1285.8 ± 1.4 m/s | 784.48 ± 0.21 kg/m3 | 2.93 ± 0.03 mPa·s | 1248.6 ± 1.4 m/s | 777.78 ± 0.22 kg/m3 | 2.37 ± 0.03 mPa·s | 1212 ± 1.4 m/s | 771.07 ± 0.22 kg/m3 | 1.95 ± 0.02 mPa·s | 1176.2 ± 1.4 m/s | 764.34 ± 0.22 kg/m3 | 1.64 ± 0.02 mPa·s | 1141 ± 1.4 m/s | 757.59 ± 0.22 kg/m3 | 1.39 ± 0.02 mPa·s | 1106.5 ± 1.4 m/s | 750.83 ± 0.22 kg/m3 | 1.19 ± 0.02 mPa·s | 743.9 ± 0.4 kg/m3 | viscosity ([1]; 363.15 K): 1.04 ± 0.02 mPa·s; mass density ([1]; 363.15 K): 737 ± 0.4 kg/m3; viscosity ([1]; 373.15 K): 0.91 ± 0.02 mPa·s and 0.913 ± 0.021 mPa·s; mass density ([1]; 373.15 K): 730.2 ± 0.4 kg/m3 |
| CC(CC(C)(C)C)CC(C)(C)C [2,2,4,6,6-pentamethylheptane] | 1.31 ± 0.02 mPa·s | 1203.7 ± 1.3 m/s | 745.21 ± 0.19 kg/m3 | 1.11 ± 0.02 mPa·s | 1164.9 ± 1.3 m/s | 737.93 ± 0.19 kg/m3 | 0.94 ± 0.02 mPa·s and 0.948 ± 0.021 mPa·s | 1126.7 ± 1.2 m/s | 730.61 ± 0.19 kg/m3 | 0.82 ± 0.02 mPa·s | 1089.3 ± 1.2 m/s | 723.26 ± 0.19 kg/m3 | 0.715 ± 0.021 mPa·s and 0.71 ± 0.02 mPa·s | 1052.6 ± 1.2 m/s | 715.86 ± 0.2 kg/m3 | 0.632 ± 0.021 mPa·s and 0.63 ± 0.02 mPa·s | 1016.5 ± 1.2 m/s | 708.42 ± 0.2 kg/m3 | 0.562 ± 0.021 mPa·s and 0.56 ± 0.02 mPa·s | 700.7 ± 0.4 kg/m3 | viscosity ([1]; 363.15 K): 0.505 ± 0.021 mPa·s and 0.5 ± 0.02 mPa·s; mass density ([1]; 363.15 K): 693.1 ± 0.4 kg/m3; viscosity ([1]; 373.15 K): 0.459 ± 0.021 mPa·s and 0.45 ± 0.02 mPa·s; mass density ([1]; 373.15 K): 685.4 ± 0.4 kg/m3 |
| CC(CC(C)(C)C)CC(C)(C)C [2,2,4,6,6-pentamethylheptane] + CC(CC(C)(C)C)CC(C)(C)CC(C)(C)C | – | – | – | – | – | – | – | – | – | – | – | – | – | – | – | – | – | – | – | – | viscosity ([2]; 293.15 K): 1.31 ± 0.02 mPa·s; viscosity ([2]; 303.15 K): 1.11 ± 0.02 mPa·s; viscosity ([2]; 313.15 K): 0.948 ± 0.021 mPa·s; viscosity ([2]; 323.15 K): 0.82 ± 0.021 mPa·s; viscosity ([2]; 333.15 K): 0.715 ± 0.021 mPa·s; viscosity ([2]; 343.15 K): 0.632 ± 0.021 mPa·s; viscosity ([2]; 353.15 K): 0.562 ± 0.021 mPa·s; viscosity ([2]; 363.15 K): 0.505 ± 0.021 mPa·s; viscosity ([2]; 373.15 K): 0.459 ± 0.021 mPa·s |
